Laboratory results published in publication PMC8536575, “Acute effects of the imidacloprid metabolite desnitro-imidacloprid on human nACh receptors relevant for neuronal signaling” (Archives of Toxicology, 2021).

What was measured:
LUHMES neurons = test: Single-cell Ca2+-imaging of LUHMES neurons; assay type: cell-based, human; conditions: single-cell time-lapse fluorescence microscopy
Method: For Ca^2+-imaging experiments with a higher resolution on the single-cell level, the Cell Observer (Carl Zeiss Microscopy) was used. The Ca^2+-sensitive dye, the cell handling before the experiment, and the buffer were the same as described above for the experiments with the high-throughput FDSS/µCELL system. The recordings were performed with 2 × 2 binning and a 42 ms exposure time. The compounds were applied after a baseline recording of at least 10 s.
The single-cell Ca^2+-imaging recordings were exported and analyzed in Fiji ImageJ (version 1.52i) to get the average fluorescence signal of each cell. These signals were further analyzed in R, where a threshold detection was performed to detect responding cells. For this, the offset was corrected by subtracting the mean of 20–65% of the fluorescence signal of the pre-application period from the recording, to be robust against spontaneous activity. The threshold was defined as mean + 3 * SD of the negative control recordings, during the detection phase of 6.5 s during the application.

human α4β2 (HS) nAChR = target: T1, human α4β2 (HS) nAChR (Homo sapiens, UniProt P17787+P43681); test: Two-electrode voltage-clamp recordings, Xenopus laevis oocytes expressing human α4β2 (HS) nAChR; assay type: cell-based
T1 construct: expressed in transfected cells; host or cells: Xenopus laevis oocytes (EcoCyte Bioscience), mRNA injection, 3 ng α4 and 30 ng β2
T1 sequence (P43681 27-627): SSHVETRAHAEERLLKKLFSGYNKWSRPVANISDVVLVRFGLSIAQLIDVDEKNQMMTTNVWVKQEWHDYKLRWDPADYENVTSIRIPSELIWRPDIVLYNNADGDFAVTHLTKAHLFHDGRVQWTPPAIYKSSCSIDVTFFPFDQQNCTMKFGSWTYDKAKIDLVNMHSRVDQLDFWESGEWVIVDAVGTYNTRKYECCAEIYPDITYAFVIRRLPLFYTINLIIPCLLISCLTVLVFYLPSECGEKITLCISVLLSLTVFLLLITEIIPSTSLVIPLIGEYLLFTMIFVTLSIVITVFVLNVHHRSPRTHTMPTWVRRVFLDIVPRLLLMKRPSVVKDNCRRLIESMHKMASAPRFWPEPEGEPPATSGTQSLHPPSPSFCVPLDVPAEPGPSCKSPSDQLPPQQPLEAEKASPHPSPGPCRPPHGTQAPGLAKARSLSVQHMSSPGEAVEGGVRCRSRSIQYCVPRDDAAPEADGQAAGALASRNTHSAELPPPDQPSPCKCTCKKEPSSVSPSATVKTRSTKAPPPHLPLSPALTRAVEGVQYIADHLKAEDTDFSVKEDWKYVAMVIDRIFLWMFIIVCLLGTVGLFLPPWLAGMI
T1 sequence (P17787 26-502): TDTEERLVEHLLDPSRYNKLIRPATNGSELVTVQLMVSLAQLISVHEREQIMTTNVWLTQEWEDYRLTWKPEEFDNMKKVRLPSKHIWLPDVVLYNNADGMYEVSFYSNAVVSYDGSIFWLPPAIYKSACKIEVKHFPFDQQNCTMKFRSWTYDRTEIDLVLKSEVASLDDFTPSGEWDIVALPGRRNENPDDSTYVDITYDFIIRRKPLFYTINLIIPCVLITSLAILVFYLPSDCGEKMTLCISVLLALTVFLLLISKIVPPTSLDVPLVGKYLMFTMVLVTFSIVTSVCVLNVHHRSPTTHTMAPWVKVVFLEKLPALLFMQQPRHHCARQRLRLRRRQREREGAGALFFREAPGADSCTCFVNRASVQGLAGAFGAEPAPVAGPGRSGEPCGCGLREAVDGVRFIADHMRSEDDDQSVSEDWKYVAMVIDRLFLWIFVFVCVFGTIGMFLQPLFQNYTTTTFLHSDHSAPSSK

human α7 nAChR = target: T2, human α7 nAChR (Homo sapiens, UniProt P36544); test: Two-electrode voltage-clamp recordings, Xenopus laevis oocytes expressing human α7 nAChR; assay type: cell-based
T2 construct: expressed in transfected cells; host or cells: Xenopus laevis oocytes, injection of 30 ng mRNA (pCDNA3.1, T7 transcript)
T2 sequence (P36544 23-502): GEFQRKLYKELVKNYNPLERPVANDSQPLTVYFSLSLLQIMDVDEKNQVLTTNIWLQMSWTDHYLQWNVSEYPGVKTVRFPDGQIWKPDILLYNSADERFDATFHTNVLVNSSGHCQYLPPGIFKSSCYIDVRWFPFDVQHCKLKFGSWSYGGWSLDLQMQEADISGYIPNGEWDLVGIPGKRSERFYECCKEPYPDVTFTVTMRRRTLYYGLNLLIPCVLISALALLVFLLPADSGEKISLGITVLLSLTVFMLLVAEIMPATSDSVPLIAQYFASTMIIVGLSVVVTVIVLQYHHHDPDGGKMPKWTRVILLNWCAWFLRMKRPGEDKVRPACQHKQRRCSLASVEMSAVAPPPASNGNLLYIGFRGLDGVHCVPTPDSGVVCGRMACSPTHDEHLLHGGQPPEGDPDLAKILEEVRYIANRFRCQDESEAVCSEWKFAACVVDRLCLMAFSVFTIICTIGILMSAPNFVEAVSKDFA

human α3β4 nAChR = target: T3, human α3β4 nAChR (Homo sapiens, UniProt P30926+P32297); test: Two-electrode voltage-clamp recordings, Xenopus laevis oocytes expressing human α3β4 nAChR; assay type: cell-based
T3 construct: expressed in transfected cells; host or cells: Xenopus laevis oocytes, mRNA injection, 0.33 ng α3 and 3.33 ng β4
T3 sequence (P32297 32-505): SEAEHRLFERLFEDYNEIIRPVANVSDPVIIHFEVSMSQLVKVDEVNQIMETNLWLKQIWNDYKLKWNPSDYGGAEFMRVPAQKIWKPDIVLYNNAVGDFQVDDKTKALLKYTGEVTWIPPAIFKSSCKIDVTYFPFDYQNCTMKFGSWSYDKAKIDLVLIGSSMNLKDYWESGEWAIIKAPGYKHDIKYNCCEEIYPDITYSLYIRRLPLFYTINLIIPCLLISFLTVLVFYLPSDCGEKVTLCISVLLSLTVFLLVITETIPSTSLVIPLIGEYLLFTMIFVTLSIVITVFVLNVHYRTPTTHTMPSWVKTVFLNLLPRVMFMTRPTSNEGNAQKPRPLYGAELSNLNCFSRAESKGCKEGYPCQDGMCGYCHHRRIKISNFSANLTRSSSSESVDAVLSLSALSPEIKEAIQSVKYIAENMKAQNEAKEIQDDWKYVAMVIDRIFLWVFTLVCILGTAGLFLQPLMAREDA
T3 sequence (P30926 22-498): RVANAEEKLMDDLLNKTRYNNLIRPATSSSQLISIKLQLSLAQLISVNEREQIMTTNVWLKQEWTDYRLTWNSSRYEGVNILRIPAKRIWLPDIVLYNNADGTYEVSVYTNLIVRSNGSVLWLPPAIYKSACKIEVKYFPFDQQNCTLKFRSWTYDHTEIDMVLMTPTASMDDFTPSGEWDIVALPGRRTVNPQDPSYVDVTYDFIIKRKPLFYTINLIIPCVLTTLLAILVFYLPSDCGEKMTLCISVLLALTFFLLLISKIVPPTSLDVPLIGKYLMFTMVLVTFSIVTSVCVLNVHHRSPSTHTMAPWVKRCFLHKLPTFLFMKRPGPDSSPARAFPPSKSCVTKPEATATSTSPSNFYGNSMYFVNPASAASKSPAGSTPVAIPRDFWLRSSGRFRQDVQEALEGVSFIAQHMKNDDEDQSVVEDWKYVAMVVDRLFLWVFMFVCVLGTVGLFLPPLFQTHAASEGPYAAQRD

human α4β2 (LS) nAChR = target: T4, human α4β2 (LS) nAChR (Homo sapiens, UniProt P17787+P43681); test: Two-electrode voltage-clamp recordings, Xenopus laevis oocytes expressing human α4β2 (LS) nAChR; assay type: cell-based
T4 construct: expressed in transfected cells; host or cells: Xenopus laevis oocytes, mRNA injection, 10 ng α4 and 1 ng β2
T4 sequence (P43681 27-627): as the sequence (P43681 27-627) above
T4 sequence (P17787 26-502): as the sequence (P17787 26-502) above
Source text: The human α7 nAChR subunit was cloned in the pCDNA3.1 vector.
For the generation of the mRNA for injection, the plasmid DNAs of α3, α4, β2, and β4 were linearized with the NotI restriction endonuclease (New England Biolabs) and the plasmid DNA of α7 was linearized with the XbaI restriction endonuclease (New England Biolabs). The mRNAs of α3, α4, β2, and β4 were generated by in vitro transcription using the mMESSAGE mMACHINE SP6 Transcription Kit (Invitrogen). For the generation of α7 mRNA, the mMESSAGE mMACHINE T7 Transcription Kit (Invitrogen) was used. For the separation of the DNA and mRNA, a phenol–chloroform extraction (Chomczynski and Sacchi [2006]) was performed. The mRNA was then obtained by ethanol precipitation from the aqueous phase; for quantification, the BioPhotometer (Eppendorf) was used.
The recordings of human α7, α3β4, α4β2, and α4β4 nAChRs expressed in Xenopus laevis oocytes (EcoCyte Bioscience) were performed in two-electrode voltage-clamp mode using the Roboocyte2 system and the corresponding software (version 1.4.1; Multi Channel Systems MCS). Prior to the recordings, the oocytes were maintained at 19 °C in modified Barth’s solution containing [mM]: 88 NaCl, 1 KCl, 0.33 Ca(NO3)2, 0.82 MgSO4, 2.4 NaHCO3, 0.41 CaCl2, 5 Tris, 100 U/ml penicillin, 100 µg/ml streptomycin, pH 7.4.
To express human α7 nAChR, we injected 50 nl of mRNA solution (30 ng mRNA) per oocyte, using the Roboinject and the corresponding software (version 1.2.1; Multi Channel Systems MCS). […]
The baseline correction of voltage-clamp oocyte recordings was performed with the Roboocyte2 + software (version 1.4.3; Multi Channel Systems MCS, Germany). The maximal current influx and further analysis were executed in scripts written in R. In the antagonist experiments with oocytes, the maximal inward current was determined for the last response of each period (control, three antagonist concentrations, and washout).

[1] = Clearance study in a hepatocyte co-culture system; conditions: human, hepatocytes
Source text: Renal clearance for DN-IMI was assumed to be governed only by passive processes, with both filtration and passive reabsorption being accounted for. Passive permeability was scaled from the predicted permeability in the intestine (Peff 0.37 10-4 cm/s) accounting for the surface area of the proximal tubules in the kidney.

[2] = Blood/plasma ratio and free fraction (PBTK input parameters); assay type: in vitro ADME
mice = conditions: ref Chao and Casida [1997], Tomizawa et al. [2000], [2001]; cited from earlier work
[3] = from curve-fitted concentration–response data

**Q.** Which “percentage of responsive cells” value (LUHMES neurons) does the source give for `NC1=NCCN1Cc1ccc(Cl)nc1` [DN-IMI, desnitro-imidacloprid] here?
**A.** Its value is ~ 80%.

**Q.** What about the EC50 (human α4β2 (HS) nAChR) of the same molecule?
**A.** The EC50 was 0.501 µM.

**Q.** What about the “fold lower concentrations activating α4β2 (HS) than α7 and α3β4 nAChRs” value (human α4β2 (HS) nAChR) of the same molecule?
**A.** The value was 20 fold.

**Q.** And the “higher potency on α4β2 (HS) nAChR than on other subtypes” value (human α4β2 (HS) nAChR; comparison of EC25 values, α4β2 (HS) vs α7 and α3β4)?
**A.** The value was > 1 log-step.

**Q.** What about the “absolute EC25” value (human α4β2 (HS) nAChR; [3]) of the same molecule?
**A.** Its value is 0.33 µM.

**Q.** And the “estimated maximum amplitude, % of nicotine's” value (human α4β2 (HS) nAChR; normalized to nicotine (10 µM))?
**A.** The value was 64%.

**Q.** And the EC50 (human α7 nAChR)?
**A.** Its EC50 is 31.6 µM.

**Q.** And the “estimated maximum, % of the maximal response to nicotine” value (human α7 nAChR)?
**A.** The value was ~ 81%.

**Q.** And the “higher potency of DN-IMI than nicotine” value (human α7 nAChR; EC25 comparison on the receptors other than α4β2 (HS): α7 and α3β4)?
**A.** The value was “about 0.6 log-steps”.

**Q.** And the “absolute EC25” value (human α7 nAChR; [3])?
**A.** The value was 7.6 µM.

**Q.** What about the estimated maximum (human α7 nAChR; normalized to nicotine (1 mM)) of the same molecule?
**A.** Its estimated maximum is ~ 0.81.

**Q.** What about the Emax (human α7 nAChR; read-out: estimated maximum, % of the maximal response to nicotine) of the same molecule?
**A.** The Emax was 83%.

**Q.** What about the EC50 (human α3β4 nAChR) of the same molecule?
**A.** Its EC50 is 12.6 µM.

**Q.** What about the “absolute EC25” value (human α3β4 nAChR; [3]) of the same molecule?
**A.** Its value is 5.2 µM.

**Q.** And the estimated maximum (human α3β4 nAChR; normalized to nicotine (1 mM))?
**A.** The estimated maximum was ~ 0.65.

**Q.** And the estimated maximum (human α4β2 (LS) nAChR; normalized to nicotine (100 µM))?
**A.** The estimated maximum was ~ 1.22.

**Q.** What about the EC50 (human α4β2 (LS) nAChR; read-out: relative pEC50 (inward current amplitude) (converted)) of the same molecule?
**A.** The EC50 was 5.01 µM.

**Q.** What about the hepatocyte CLint [1] of the same molecule?
**A.** The hepatocyte CLint was < 143 µL/min/1e6 cells.

**Q.** And the blood plasma ratio ([2]; blood and plasma, read-out: Blood/plasma ration [B/P])?
**A.** The blood plasma ratio was 0.759.

**Q.** And the fraction unbound ([2]; plasma, read-out: Free fraction [fu])?
**A.** Its fraction unbound is 0.841.

**Q.** And the LD50 (mice)?
**A.** Its LD50 is 6 to 24 mg/kg.
